Consider eight molecules from publication PMC5934486, “Pheromone Binding Protein EhipPBP1 Is Highly Enriched in the Male Antennae of the Seabuckthorn Carpenterworm and Is Binding to Sex Pheromone Components” (Frontiers in Physiology, 2018).

Test [1] has as its target T1, recombinant EhipPBP1 (Eogystia hippophaecolus, UniProt A0A1B3P5J8). Description: Fluorescence competitive binding assay with 1-NPN as probe. The following applies: for inhibition: 1-NPN and EhipPBP1 both at 2 μM, read-out: Highest combined rate (%); for inhibition / IC50: pH 7.4; for IC50: concentration of competitor causing 50% reduction of 1-NPN fluorescence, 1-NPN and EhipPBP1 at 2 μM. The method, then:
(§1) N-phenyl-1-naphthylamine (1-NPN) was selected for use as a selectively fluorescent probe to measure the affinity of ligand binding to recombinant EhipPBP1 ([Yin et al., 2012]; [Zhong et al., 2012]). Seven pheromone and analog compounds were a gift from Professor Zhang Jintong of Shanxi Agricultural University (Table 1) and were >97% pure. A fluorescence binding assay was performed on a multiscan Spectrum Molecular Device SpectraMax i3 (Thermo Scientific, Wilmington, DE, United States) with an excitation wavelength of 337 nm and recording of emission spectra between 380 and 520 nm. Parameter selection was such that the slit widths for both excitation and emission were 10 nm. Spectra were recorded using high-speed scanning. 2 μM solution of EhipPBP1 was prepared in 20 mM Tris-HCl buffer (pH 7.4), and the ligands were dissolved in chromatographically pure methanol as 1 mM stock solutions. The affinity of EhipPBP1 for the labeled probe was determined by adding aliquots of 1-NPN stock solution to give final concentrations of 2–20 μM. […] To determine dissociation constants, intensity values corresponding to maximum fluorescence emission were plotted against free ligand concentrations. Assuming that the protein was 100% active and that the stoichiometric ratio between protein and ligand was 1:1 at saturation, the bound ligand was determined from the fluorescence intensity values. EhipPBP1 binding with every component was replicated six times. The curves were then linearized using Scatchard plots to calculate K1-NPN values. Dissociation constants of the competitors (Ki) were calculated from the corresponding IC50 values by the following equation: Ki = [IC50]/(1 + [1–NPN]/K1-NPN), where [IC50] was the concentration of a competitor that caused a 50% reduction in the fluorescence intensity, [1–NPN] represented the free concentration of 1–NPN, and K1-NPN represented the dissociation constant of the complex of protein with 1–NPN ([Campanacci et al., 2001]).

The target of test [2] is T1, recombinant EhipPBP1. Description: Binding of the fluorescent probe 1-NPN to EhipPBP1 (Scatchard analysis). The following applies: Scatchard method; 2 μM EhipPBP1, 1-NPN 2–20 μM, pH 7.4; read-out: dissociation constant (K1-NPN). The method, then: as §1, with “EhipPBP1 binding with every component was replicated six times. The curves were then linearized using Scatchard plots to calculate K1-NPN values. Dissociation constants of the competitors (Ki) were calculated from the corresponding IC50 values by the following equation: Ki = [IC50]/(1 + [1–NPN]/K1-NPN), where [IC50] was the concentration of a competitor that caused a 50% reduction in the fluorescence intensity, [1–NPN] represented the free concentration of 1–NPN, and K1-NPN represented the dissociation constant of the complex of protein with 1–NPN ([Campanacci et al., 2001]).” left out

The mark [3] stands for this setting: calculated from IC50 by Ki = [IC50]/(1 + [1-NPN]/K1-NPN), Table 1.
Setting [4] is: calculated Kd values in competitive binding assays with 1-NPN.

T1 sequence (A0A1B3P5J8 entry or part of it): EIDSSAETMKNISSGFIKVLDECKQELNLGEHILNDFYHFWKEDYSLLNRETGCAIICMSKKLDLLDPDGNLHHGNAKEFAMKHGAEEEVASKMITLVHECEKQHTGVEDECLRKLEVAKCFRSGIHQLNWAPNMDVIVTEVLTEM

The IC50 is the concentration at which inhibition is half-maximal. For the molecule `CCCCCCC=CCCCCCCO` [Z7-14:OH], at recombinant EhipPBP1 [1] (competitor 2–20 μM), the inhibition was found to be 62.3%. Besides, the Kd at recombinant EhipPBP1 [1] (setting [3]) was 3150 ± 321 nM. On recombinant EhipPBP1 [1], the IC50 came to 4000 nM.

In the case of `CCCC/C=C/CCCCCCCCOC(C)=O` [E9-14:Ac], the inhibition at recombinant EhipPBP1 [1] (competitor 2–20 μM) stood at 53.1%. For the same molecule, the Kd on recombinant EhipPBP1 [1] (setting [4]) was 6300 ± 520 nM; at recombinant EhipPBP1 [1] (setting [3]) it was 6300 ± 521 nM. Further, the 50% inhibitory concentration (IC50) at recombinant EhipPBP1 [1] was 8000 nM.

With `CCCCCCCCCC/C=C/CCOC(C)=O` [E3-14:Ac, (E)-3-tetradecenyl acetate], the inhibition at recombinant EhipPBP1 [1] (competitor 2–20 μM) is 89.4%. Also, the values for the Kd on recombinant EhipPBP1 [1] (setting [4]) and on recombinant EhipPBP1 [1] (setting [3]) were 1580 ± 210 nM and 1570 ± 210 nM, respectively. For the same molecule, at recombinant EhipPBP1 [1], the IC50 was determined as 2000 nM.

Consider `CCCCCCCCCCC=CCCO` [Z3-14:OH], for which, on recombinant EhipPBP1 [1] (competitor 2–20 μM), the inhibition came out at 56.5%. Moreover, the Kd at recombinant EhipPBP1 [1] (setting [4]) is 2360 ± 200 nM; at recombinant EhipPBP1 [1] (setting [3]) it was 2360 ± 201 nM. Moreover, on recombinant EhipPBP1 [1], the 50% inhibitory concentration (IC50) worked out at 3000 nM.

Take `c1ccc(Nc2cccc3ccccc23)cc1` [1-NPN, N-phenyl-1-naphthylamine]: the Kd on recombinant EhipPBP1 [2] was 3700 ± 60 nM.

As to `CCCCC=CCCCCCCCCOC(C)=O` [Z9-14:Ac], the inhibition at recombinant EhipPBP1 [1] (competitor 2–20 μM) was found to be 37.9%. Besides, on recombinant EhipPBP1 [1] (competitor 2–20 μM, Kd could not be calculated), the “binding in the range of test concentrations” value is under 50%.

On to `CCCCCC/C=C\CCCCCCOC(C)=O` [Z7-14:Ac, (Z)-7-tetradecenyl acetate], for which the inhibition on recombinant EhipPBP1 [1] (competitor 2–20 μM) came to 86.4%. Also, the Kd at recombinant EhipPBP1 [1] (setting [4]) is 1180 ± 10 nM; on recombinant EhipPBP1 [1] (setting [3]), 1180 ± 12 nM. Also, the IC50 on recombinant EhipPBP1 [1] stood at 1500 nM.

For the molecule `CCCCCCCCCC/C=C\CCOC(C)=O` [Z3-14:Ac], the “binding to EhipPBP1 (result in words)” value at recombinant EhipPBP1 [1] (competitor 2–20 μM) is recorded as “No binding was detected”.
